Results reported in patent US8501796B2, “Ester pro-drugs of [3-(1-(1H-imidazol-4-yl)ethyl)-2-methylphenyl] methanol for lowering intraocular pressure” (Allergan, Inc., priority 2010, dated 2013).

Assays:
[1] = tested on: Normotensive male Dutch-Belted rabbits; test: IOP lowering in normotensive rabbits after a topical eye drop; assay type: in vivo; conditions: rabbit, single 50 μl topical drop yielding 0.15% or 0.3% of active metabolite, 1% polysorbate 80 pH 5.5; IOP measured 0-8 hours; FIG. 1
Method: The experimental animals used, were Normotensive male Dutch-Belted rabbits (Myrtle's Rabbitry) over 6 months in age (n=4/compound/dose screened). A single drop (50 μl) of the drug formulation, which yields 0.15% or 0.3% of the active metabolite when completely hydrolyzed in 1% polysorbate 80 at pH 5.5, was administered topically by pipette onto the right eye (treated eye) at approximately 0700 hours. IOP of the rabbits (treated and untreated eyes) was measured 0 hours before and at 0.5, 1, 2, 3, 4, 6 and 8 hours after topical eyedrop administration. IOP at the time of eye drop administration (0 hours) was used as a baseline value. Prior to the tonometric measurements, 0.05% proparacaine (50 μl) was administered to each eye. Tonometric IOP measurements were obtained with a Mentor Pneumontonmeter. Additionally, all studies were masked. At least 1 week of wash-out time was allowed for each rabbit between dosings. All animals were examined for sedation, ocular irritation, and changes in pupil diameter throughout the course of the experiments.

monkeys = test: Intraocular pressure-lowering effect in monkeys compared to placebo; assay type: in vivo; conditions: monkeys treated with composition containing the compound

`Cc1c(COC(=O)C(C)C)cccc1[C@H](C)c1c[nH]cn1` [Compound 1, iso-Butyric acid 3-[(S)-1-(1H-imidazol-4-yl)-ethyl]-2-methyl-benzyl ester] was tested, and the “IOP lowering capacity (efficacy) compared to Alphagan P” value [1] was “equal or comparable efficacy to Alphagan P®”, the “intraocular pressure duration compared to Alphagan P” value [1] was “longer intraocular pressure duration than Alphagan P®” and the “time for which the decrease in intraocular pressure is maintained” value (monkeys) was “up to 24 hours”.
